Assay results published in PubChem BioAssay (NCI).
Several values for one entry are separate records, joined by “and”; a condition that tells them apart may be missing. Equal entries are not always repeated.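 Compound exposure: 48 hours, 5 concentrations, 96-well plates. Here, GI50 denotes the concentration required for 50% inhibition of growth. Definition used: TGI = concentration required for complete inhibition of growth.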

Tests used:
Test in all cases: growth of human tumour cells (NCI), 48 h
RXF 393 renal = system: RXF 393 renal
ACHN renal = system: ACHN renal
MDA-MB-435 = system: MDA-MB-435
SK-MEL-28 melanoma = system: SK-MEL-28 melanoma
NCI/ADR-RES ovarian = system: NCI/ADR-RES ovarian
CCRF-CEM leukemia = system: CCRF-CEM leukemia
K-562 leukemia = system: K-562 leukemia
NCI-H226 lung = system: NCI-H226 lung
MALME-3M melanoma = system: MALME-3M melanoma
MDA-N = system: MDA-N
SW-620 colon = system: SW-620 colon
NCI-H522 lung = system: NCI-H522 lung
HCT-15 colon = system: HCT-15 colon
NCI-H460 lung = system: NCI-H460 lung
M14 melanoma = system: M14 melanoma
OVCAR-5 ovarian = system: OVCAR-5 ovarian
UACC-257 melanoma = system: UACC-257 melanoma
SK-OV-3 ovarian = system: SK-OV-3 ovarian
EKVX NSCLC = system: EKVX NSCLC
MOLT-4 leukemia = system: MOLT-4 leukemia
A549 NSCLC = system: A549 NSCLC
KM12 colon = system: KM12 colon
SK-MEL-2 melanoma = system: SK-MEL-2 melanoma
SN12C renal = system: SN12C renal
SR leukemia = system: SR leukemia
OVCAR-8 ovarian = system: OVCAR-8 ovarian
HT29 colon = system: HT29 colon
HCC-2998 colon = system: HCC-2998 colon
SF-268 CNS = system: SF-268 CNS
MDA-MB-231 breast = system: MDA-MB-231 breast
SF-295 CNS = system: SF-295 CNS
OVCAR-3 ovarian = system: OVCAR-3 ovarian
786-0 renal = system: 786-0 renal
HOP-62 NSCLC = system: HOP-62 NSCLC
HL-60(TB) leukemia = system: HL-60(TB) leukemia
HCT-116 colon = system: HCT-116 colon
OVCAR-4 ovarian = system: OVCAR-4 ovarian
LOX IMVI melanoma = system: LOX IMVI melanoma
UACC-62 melanoma = system: UACC-62 melanoma
BT-549 breast = system: BT-549 breast
T-47D breast = system: T-47D breast
SNB-19 CNS = system: SNB-19 CNS
CAKI-1 renal = system: CAKI-1 renal
SNB-75 CNS = system: SNB-75 CNS
PC-3 prostate = system: PC-3 prostate
IGROV1 ovarian = system: IGROV1 ovarian
SK-MEL-5 melanoma = system: SK-MEL-5 melanoma
TK-10 renal = system: TK-10 renal
RPMI-8226 leukemia = system: RPMI-8226 leukemia
SF-539 CNS = system: SF-539 CNS
U251 CNS = system: U251 CNS
HOP-92 NSCLC = system: HOP-92 NSCLC
MCF7 breast = system: MCF7 breast
A498 renal = system: A498 renal
DU-145 prostate = system: DU-145 prostate
COLO 205 colon = system: COLO 205 colon
HS 578T breast = system: HS 578T breast
NCI-H23 lung = system: NCI-H23 lung
UO-31 renal = system: UO-31 renal

## CC(=O)c1c(-c2ccc(Cl)cc2)c(C#N)c(=S)n(C2OC(CO)C(O)C(O)C2O)c1-c1ccccc1 (stereo not drawn)
RXF 393 renal
  TGI: > 100 µM
ACHN renal
  TGI: > 100 µM
MDA-MB-435
  TGI: > 100 µM
SK-MEL-28 melanoma
  TGI: > 100 µM
NCI/ADR-RES ovarian
  TGI: > 100 µM
CCRF-CEM leukemia
  GI50: 13.1 µM and 55.4 µM
  TGI: 99.5 µM and > 100 µM
K-562 leukemia
  GI50: 26 µM and > 100 µM
  TGI: > 100 µM
NCI-H226 lung
  TGI: > 100 µM
MALME-3M melanoma
  TGI: > 100 µM
MDA-N
  TGI: > 100 µM
SW-620 colon
  TGI: > 100 µM
NCI-H522 lung
  TGI: > 100 µM
HCT-15 colon
  TGI: > 100 µM
NCI-H460 lung
  TGI: > 100 µM
M14 melanoma
  TGI: > 100 µM
OVCAR-5 ovarian
  GI50: > 100 µM
  TGI: > 100 µM
UACC-257 melanoma
  TGI: > 100 µM
SK-OV-3 ovarian
  TGI: > 100 µM
EKVX NSCLC
  GI50: 99.7 µM and 22.2 µM
  TGI: > 100 µM
MOLT-4 leukemia
  TGI: 29.2 µM and > 100 µM
A549 NSCLC
  GI50: 46.7 µM and > 100 µM
  TGI: > 100 µM
KM12 colon
  TGI: > 100 µM
SK-MEL-2 melanoma
  GI50: > 84.5 µM and 35 µM
  TGI: > 100 µM
SN12C renal
  TGI: > 100 µM
SR leukemia
  TGI: 61.8 µM and > 100 µM
OVCAR-8 ovarian
  TGI: > 100 µM
HT29 colon
  TGI: > 100 µM
HCC-2998 colon
  TGI: > 100 µM
SF-268 CNS
  TGI: > 100 µM
MDA-MB-231 breast
  GI50: > 22.6 µM and 76.3 µM
  TGI: > 100 µM
SF-295 CNS
  TGI: > 100 µM
OVCAR-3 ovarian
  TGI: > 100 µM
786-0 renal
  GI50: 48.8 µM and > 100 µM
  TGI: > 100 µM
HOP-62 NSCLC
  GI50: 39.8 µM and > 100 µM
  TGI: > 100 µM
HL-60(TB) leukemia
  GI50: 30.9 µM and 62.2 µM
  TGI: > 100 µM
HCT-116 colon
  GI50: 17.4 µM and > 100 µM
  TGI: > 100 µM
OVCAR-4 ovarian
  GI50: > 86.4 µM and 14.7 µM
  TGI: > 100 µM
LOX IMVI melanoma
  GI50: 15.9 µM and > 100 µM
  TGI: > 100 µM
UACC-62 melanoma
  GI50: 4.85 µM and 21.9 µM
  TGI: > 100 µM
BT-549 breast
  TGI: > 100 µM
T-47D breast
  TGI: > 100 µM
SNB-19 CNS
  GI50: 34.8 µM and > 100 µM
  TGI: > 100 µM
CAKI-1 renal
  TGI: > 100 µM
SNB-75 CNS
  TGI: > 100 µM
PC-3 prostate
  GI50: 7.97 µM and 58.6 µM
  TGI: > 100 µM
IGROV1 ovarian
  TGI: > 100 µM
SK-MEL-5 melanoma
  GI50: 31.8 µM and > 100 µM
  TGI: > 100 µM
TK-10 renal
  TGI: > 100 µM
RPMI-8226 leukemia
  TGI: > 100 µM
SF-539 CNS
  GI50: > 100 µM
  TGI: > 100 µM
U251 CNS
  GI50: 42.8 µM and > 100 µM
  TGI: > 100 µM
HOP-92 NSCLC
  TGI: > 100 µM and 74.1 µM
MCF7 breast
  TGI: > 100 µM
A498 renal
  GI50: > 100 µM and 49.7 µM
  TGI: > 100 µM
DU-145 prostate
  TGI: > 100 µM
COLO 205 colon
  GI50: 47.3 µM and > 100 µM
  TGI: > 100 µM
HS 578T breast
  TGI: > 100 µM
NCI-H23 lung
  TGI: > 100 µM

## CN(C)C=Nc1ccc2c3c(cccc13)-c1ccccc1-2
RXF 393 renal
  TGI: 21 µM
ACHN renal
  TGI: 31.6 µM
MDA-MB-435
  TGI: 28.3 µM
SK-MEL-28 melanoma
  TGI: 31.9 µM
NCI/ADR-RES ovarian
  TGI: 31.4 µM
CCRF-CEM leukemia
  TGI: 17.2 µM
K-562 leukemia
  TGI: 22.1 µM
NCI-H226 lung
  TGI: 22.8 µM
MALME-3M melanoma
  TGI: 34.6 µM
MDA-N
  TGI: 27.6 µM
NCI-H522 lung
  TGI: 18.8 µM
HCT-15 colon
  TGI: 24.1 µM
M14 melanoma
  TGI: 22.1 µM
OVCAR-5 ovarian
  TGI: 23.1 µM
UACC-257 melanoma
  TGI: 31.9 µM
SK-OV-3 ovarian
  TGI: 26.5 µM
EKVX NSCLC
  TGI: 22.4 µM
MOLT-4 leukemia
  TGI: 24.8 µM
A549 NSCLC
  TGI: 23.7 µM
UO-31 renal
  TGI: 19.6 µM
SK-MEL-2 melanoma
  TGI: 31.1 µM
SN12C renal
  TGI: 25.1 µM
SR leukemia
  TGI: 26.3 µM
OVCAR-8 ovarian
  TGI: 29.8 µM
HT29 colon
  TGI: 21.6 µM
SF-268 CNS
  TGI: 26.8 µM
MDA-MB-231 breast
  TGI: 28.2 µM
SF-295 CNS
  TGI: 27.9 µM
OVCAR-3 ovarian
  TGI: 28.9 µM
786-0 renal
  TGI: 26 µM
HOP-62 NSCLC
  TGI: 29.5 µM
HL-60(TB) leukemia
  TGI: 23.2 µM
HCT-116 colon
  TGI: 28.7 µM
OVCAR-4 ovarian
  TGI: 31.6 µM
LOX IMVI melanoma
  TGI: 28.3 µM
UACC-62 melanoma
  TGI: 38.8 µM
BT-549 breast
  TGI: 32 µM
T-47D breast
  TGI: 31.3 µM
SNB-19 CNS
  TGI: 27.4 µM
SNB-75 CNS
  TGI: 28.9 µM
PC-3 prostate
  TGI: 26.3 µM
IGROV1 ovarian
  TGI: 28.8 µM
SK-MEL-5 melanoma
  TGI: 28.1 µM
TK-10 renal
  TGI: 26.7 µM
RPMI-8226 leukemia
  TGI: 38.9 µM
SF-539 CNS
  TGI: 24.5 µM
U251 CNS
  TGI: 26.2 µM
HOP-92 NSCLC
  TGI: 24.9 µM
MCF7 breast
  TGI: 30.7 µM
A498 renal
  TGI: 21.7 µM
DU-145 prostate
  TGI: 25.7 µM
COLO 205 colon
  TGI: 30.9 µM
HS 578T breast
  TGI: 24.9 µM
NCI-H23 lung
  TGI: 32.9 µM
